Measurements published in PubChem BioAssay AID248 (DTP/NCI, 2004).
Toxic doses and inconclusive results are not listed. Cut-off read from the data, not from the text of the source: active = T/C of 150% or more; inactive = T/C below 125%.

System: L1210 leukemia ip in BDF1 mice, survival T/C
Assay: NCI In Vivo Anticancer Drug Screen. Data for tumor model L1210 Leukemia (intraperitoneal) in B6D2F1 (BDF1) mice
Settings: endpoint: mean survival time, higher = longer survival
Method in brief: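 Transplantable tumor model; survival measured in treated vs vehicle control mice. Value = treated/control.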

[1] = dose: 100.0 mg/kg/injection, schedule: Q01DX009 (ip), vehicle: Klucel (hydroxypropylcellulose) (HPC)
[2] = dose: 100.0 mg/kg/injection, schedule: Q04DX003 (ip), vehicle: Klucel (hydroxypropylcellulose) (HPC)
[3] = dose: 100.0 mg/kg/injection, schedule: Q04DX002 (ip), vehicle: Klucel (hydroxypropylcellulose) (HPC)
[4] = dose: 200.0 mg/kg/injection, schedule: Q04DX002 (ip), vehicle: Klucel (hydroxypropylcellulose) (HPC)
[5] = dose: 400.0 mg/kg/injection, schedule: Q04DX002 (ip), vehicle: Klucel (hydroxypropylcellulose) (HPC)
[6] = dose: 100.0 mg/kg/injection, schedule: Q01DX001 (ip), vehicle: carboxymethylcellulose (CMC)
[7] = dose: 200.0 mg/kg/injection, schedule: Q01DX001 (ip), vehicle: carboxymethylcellulose (CMC)
[8] = dose: 400.0 mg/kg/injection, schedule: Q01DX001 (ip), vehicle: carboxymethylcellulose (CMC)

Measured: T/C

OC(CCN1CCCCC1)(c1ccccc1)C1CCCC1 (stereo not drawn)
inactive: dose: 6.25 mg/kg/injection, schedule: Q01DX009 (ip), vehicle: Klucel (hydroxypropylcellulose) (HPC) 114 % of control | dose: 12.5 mg/kg/injection, schedule: Q01DX009 (ip), vehicle: Klucel (hydroxypropylcellulose) (HPC) 100 % of control | dose: 25.0 mg/kg/injection, schedule: Q01DX009 (ip), vehicle: Klucel (hydroxypropylcellulose) (HPC) 94 % of control | dose: 25.0 mg/kg/injection, schedule: Q04DX003 (ip), vehicle: Klucel (hydroxypropylcellulose) (HPC) 100 % of control | dose: 50.0 mg/kg/injection, schedule: Q01DX009 (ip), vehicle: Klucel (hydroxypropylcellulose) (HPC) 97 % of control | dose: 50.0 mg/kg/injection, schedule: Q04DX003 (ip), vehicle: Klucel (hydroxypropylcellulose) (HPC) 96 % of control | [1] 97 % of control | [2] 96 % of control

CSc1nc(N)c(N)c(N)n1
inactive: [3] 103 % of control | [4] 110 % of control | [5] 103 % of control

Nc1c(C(=O)O)cc(Br)c2c1C(=O)c1ccccc1C2=O
inactive: [2] 97 % of control | dose: 200.0 mg/kg/injection, schedule: Q04DX003 (ip), vehicle: Klucel (hydroxypropylcellulose) (HPC) 95 % of control

O=C(COc1ccc(Cl)cc1)C1CSc2ccc(Br)cc21 (stereo not drawn)
inactive: dose: 100.0 mg/kg/injection, schedule: Q04DX003 (ip), vehicle: saline sonified 89 % of control | dose: 200.0 mg/kg/injection, schedule: Q04DX003 (ip), vehicle: saline sonified 101 % of control | dose: 400.0 mg/kg/injection, schedule: Q04DX003 (ip), vehicle: saline sonified 92 % of control

CCC(O)C[As](=O)(O)c1cccc(Cl)c1 (stereo not drawn)
inactive: dose: 0.78 mg/kg/injection, schedule: Q04DX002 (ip), vehicle: saline 106 % of control | dose: 0.78 mg/kg/injection, schedule: Q04DX003 (ip), vehicle: saline with Tween-80 92 % of control | dose: 1.56 mg/kg/injection, schedule: Q01DX001 (ip), vehicle: saline 96 % of control | dose: 1.56 mg/kg/injection, schedule: Q04DX002 (ip), vehicle: saline 101 % of control | dose: 1.56 mg/kg/injection, schedule: Q04DX003 (ip), vehicle: saline with Tween-80 94 % of control | dose: 3.13 mg/kg/injection, schedule: Q01DX001 (ip), vehicle: saline 100 % of control | dose: 3.13 mg/kg/injection, schedule: Q04DX002 (ip), vehicle: saline 105 % of control | dose: 3.13 mg/kg/injection, schedule: Q04DX003 (ip), vehicle: saline with Tween-80 95 % of control | dose: 6.25 mg/kg/injection, schedule: Q01DX001 (ip), vehicle: saline with Tween-80 120 % of control | dose: 6.25 mg/kg/injection, schedule: Q01DX001 (ip), vehicle: saline 91 % of control | dose: 6.25 mg/kg/injection, schedule: Q04DX002 (ip), vehicle: saline 97 % of control | dose: 6.25 mg/kg/injection, schedule: Q04DX003 (ip), vehicle: saline with Tween-80 92 % of control

O=C(O)CCC(NC(=O)C1CCCCC1C(=O)O)C(=O)O (stereo not drawn)
inactive: dose: 100.0 mg/kg/injection, schedule: Q04DX003 (ip), vehicle: saline 96 % of control | dose: 200.0 mg/kg/injection, schedule: Q04DX003 (ip), vehicle: saline 86 % of control | dose: 400.0 mg/kg/injection, schedule: Q04DX003 (ip), vehicle: saline 87 % of control

CCOC(=O)NC(=S)n1ncnc1N
inactive: dose: 6.25 mg/kg/injection, schedule: Q01DX009 (ip), vehicle: saline with Tween-80 105 % of control | dose: 12.5 mg/kg/injection, schedule: Q01DX009 (ip), vehicle: saline with Tween-80 97 % of control | dose: 25.0 mg/kg/injection, schedule: Q01DX009 (ip), vehicle: saline with Tween-80 100 % of control | dose: 35.0 mg/kg/injection, schedule: Q01DX009 (ip), vehicle: saline with Tween-80 86 % of control

CCCCS(=O)(=O)C1C2CCC(O2)C1S(=O)(=O)CCCC (stereo not drawn)
inactive: [3] 92 % of control | [4] 105 % of control | [5] 101 % of control

O=c1[nH]cc(O)c(=O)[nH]1
inactive: dose: 50.0 mg/kg/injection, schedule: Q01DX001 (ip), vehicle: carboxymethylcellulose (CMC) 100 % of control | dose: 62.5 mg/kg/injection, schedule: Q#A X018 (ip), vehicle: saline 98 % of control | [6] 102 % of control | dose: 125.0 mg/kg/injection, schedule: Q#A X018 (ip), vehicle: saline 104 % of control | dose: 176.0 mg/kg/injection, schedule: Q01DX Z (ip), vehicle: carboxymethylcellulose (CMC) 107 % of control | [7] 107 % of control | dose: 250.0 mg/kg/injection, schedule: Q#A X018 (ip), vehicle: saline 115 % of control | dose: 267.0 mg/kg/injection, schedule: Q01DX015 (ip), vehicle: saline 115 % of control | dose: 267.0 mg/kg/injection, schedule: Q01DX Z (ip), vehicle: carboxymethylcellulose (CMC) 120 % of control | [8] 100 % of control | dose: 400.0 mg/kg/injection, schedule: Q01DX015 (ip), vehicle: saline 120 % of control | dose: 600.0 mg/kg/injection, schedule: Q01DX015 (ip), vehicle: saline 119 % of control

O=C(O)c1ccc([N+](=O)[O-])cc1OCc1ccccc1
inactive: dose: 100.0 mg/kg/injection, schedule: Q01DX001 (ip), vehicle: other 103 % of control | dose: 200.0 mg/kg/injection, schedule: Q01DX001 (ip), vehicle: other 95 % of control | dose: 400.0 mg/kg/injection, schedule: Q01DX001 (ip), vehicle: other 97 % of control

Nc1ccc(Nc2ncnc3nc[nH]c23)cc1
inactive: dose: 100.0 mg/kg/injection, schedule: Q04DX003 (ip), vehicle: saline with Tween-80 102 % of control | dose: 200.0 mg/kg/injection, schedule: Q04DX003 (ip), vehicle: saline with Tween-80 98 % of control | dose: 400.0 mg/kg/injection, schedule: Q04DX003 (ip), vehicle: saline with Tween-80 107 % of control

CC(=O)n1cc(/C=C2\N=C(c3cccc(Cl)c3)OC2=O)c2ccccc21
inactive: [1] 112 % of control | dose: 200.0 mg/kg/injection, schedule: Q01DX009 (ip), vehicle: Klucel (hydroxypropylcellulose) (HPC) 104 % of control | dose: 400.0 mg/kg/injection, schedule: Q01DX009 (ip), vehicle: Klucel (hydroxypropylcellulose) (HPC) 101 % of control

COc1cc2c(cc1OC)C(Cc1ccc([N+](=O)[O-])cc1)=[N+](C)CC2
inactive: [6] 103 % of control | [7] 105 % of control | [8] 108 % of control

COc1ccc(-n2c(=O)c(N=Nc3ccc(Br)cc3)c(O)n(-c3ccccc3Cl)c2=S)cc1
inactive: dose: 37.5 mg/kg/injection, schedule: Q01DX001 (ip), vehicle: Klucel (hydroxypropylcellulose) (HPC) 110 % of control | dose: 75.0 mg/kg/injection, schedule: Q01DX001 (ip), vehicle: Klucel (hydroxypropylcellulose) (HPC) 104 % of control | dose: 150.0 mg/kg/injection, schedule: Q01DX001 (ip), vehicle: Klucel (hydroxypropylcellulose) (HPC) 95 % of control

c1ccc(N=Nc2ccc[nH]2)cc1
inactive: dose: 50.0 mg/kg/injection, schedule: Q01DX009 (ip), vehicle: acetone 98 % of control | dose: 100.0 mg/kg/injection, schedule: Q01DX009 (ip), vehicle: acetone 102 % of control

COc1ccc(/C=C2/CCOC2=O)cc1
inactive: dose: 12.5 mg/kg/injection, schedule: Q04DX002 (ip), vehicle: Klucel (hydroxypropylcellulose) (HPC) 99 % of control
